Like-named read-outs stand apart in the source and are kept apart here.

This assay deals with T1, recombinant human NaV1.8 stably transfected HEK cells (Homo sapiens, UniProt Q9Y5Y9).
T1 construct: expressed in transfected cells; host or cells: HEK cells, stably transfected
Kind of assay: Compound profiling on NaV1.8, human NaV1.8 cell line, SyncroPatch384PE automated patch clamp assay (Example 102, first set of compounds, Table 16). The assay is classed as cell-based. The note with it: human NaV1.8 HEK cells, Table 16 (first set of compounds). Here is the method:
Compound Profiling on NaV1.8—Human NaV1.8 Cell Line—SyncroPatch384PE Assay
Compounds were tested on recombinant human NaV1.8 stably transfected HEK cells using the SyncroPatch384PE system, an automated patch clamp device. Cells were cultured at 37° C./5% CO2 in DMEM medium supplemented with GlutaMAX I, NEAA 1%, FBS 10% and seeded in T175 flasks. Cells were cultured at 30° C. one day prior to recording sodium currents. On the day of the recordings, cells were detached with 0.05% Trypsin-EDTA, resuspended in serum free DMEM medium and placed into the SyncroPatch384PE 6° C. pre-cooled cell hotel and shaken at 200 rpm. Intracellular solution (IC) contained, in mM: 10, CsCl; 110, CsF; 20, EGTA; 10, HEPES. Extracellular solution (EC) contained, in mM: 140, NaCl; 4, KCl; 5, Glucose; 10, HEPES; 2, CaCl2; 1, MgCl2. Washing solution contained, in mM: 40, NMDG; 100, NaCl; 4, KCl; 10, Glucose; 10, HEPES; 5, CaCl2; 1, MgCl2.
Compounds were tested in triplicate in 0.1% DMSO and 0.030% Pluronic Acid. Compounds were diluted 1:3 in EC solution to create a 10-point concentration response curve, spanning a final concentration range from 20-0.001 μM in the assay plate. Each plate contained tetracaine and another tool compound as positive controls. Up to 8 compounds were tested on one plate. 250 μM tetracaine and 0.1% DMSO were used as high and low controls, respectively. Whole cell patch clamp recordings were conducted according to Nanion's standard procedure for SyncroPatch384PE®. Cells were held at a holding potential of −120 mV. A depolarization step to 10 mV for 30 ms was applied (P1 measurement), followed by a hyperpolarization step to −100 mV for 100 ms. An inactivation step at −40 mV for 10 sec was applied before stepping to −100 mV for 20 ms, followed by a step to 10 mV for 30 ms (P2 measurement) and then back to −100 mV for 30 ms. Sweep interval was 15 sec with a sampling rate of 10 kHz. Following establishment of the whole-cell configuration in EC, two washing steps with reference buffer were performed to stabilize the baseline. Compounds were then applied by the SynchroPatch into each well and the current was recorded for five minutes in EC, followed by application of tetracaine to achieve full block at the end of the experiment. The potency of the compounds was assessed on two read-outs, resting state block (P1 measurement) or inactivated state block (P2 measurement) to obtain IC50 values. Values were normalized to high (tetracaine) and low (DMSO) controls. The IC50 values are listed in Table 16 as follows: “A” represents an IC50 less than or equal to 20 nM, “B” represents an IC50 greater than 20 nM to less than or equal to 40 nM, “C” represents an IC50 greater than 40 nM to less than or equal to 200 nM, “D” represents an IC50 greater than 200 nM to less than or equal to 500 nM.

Setting [1] is: inactivated state block (P2 measurement), read-out: P2IC50.
[2] abbreviates: resting state block (P1 measurement), read-out: P1IC50.

T1 sequence (Q9Y5Y9 whole entry): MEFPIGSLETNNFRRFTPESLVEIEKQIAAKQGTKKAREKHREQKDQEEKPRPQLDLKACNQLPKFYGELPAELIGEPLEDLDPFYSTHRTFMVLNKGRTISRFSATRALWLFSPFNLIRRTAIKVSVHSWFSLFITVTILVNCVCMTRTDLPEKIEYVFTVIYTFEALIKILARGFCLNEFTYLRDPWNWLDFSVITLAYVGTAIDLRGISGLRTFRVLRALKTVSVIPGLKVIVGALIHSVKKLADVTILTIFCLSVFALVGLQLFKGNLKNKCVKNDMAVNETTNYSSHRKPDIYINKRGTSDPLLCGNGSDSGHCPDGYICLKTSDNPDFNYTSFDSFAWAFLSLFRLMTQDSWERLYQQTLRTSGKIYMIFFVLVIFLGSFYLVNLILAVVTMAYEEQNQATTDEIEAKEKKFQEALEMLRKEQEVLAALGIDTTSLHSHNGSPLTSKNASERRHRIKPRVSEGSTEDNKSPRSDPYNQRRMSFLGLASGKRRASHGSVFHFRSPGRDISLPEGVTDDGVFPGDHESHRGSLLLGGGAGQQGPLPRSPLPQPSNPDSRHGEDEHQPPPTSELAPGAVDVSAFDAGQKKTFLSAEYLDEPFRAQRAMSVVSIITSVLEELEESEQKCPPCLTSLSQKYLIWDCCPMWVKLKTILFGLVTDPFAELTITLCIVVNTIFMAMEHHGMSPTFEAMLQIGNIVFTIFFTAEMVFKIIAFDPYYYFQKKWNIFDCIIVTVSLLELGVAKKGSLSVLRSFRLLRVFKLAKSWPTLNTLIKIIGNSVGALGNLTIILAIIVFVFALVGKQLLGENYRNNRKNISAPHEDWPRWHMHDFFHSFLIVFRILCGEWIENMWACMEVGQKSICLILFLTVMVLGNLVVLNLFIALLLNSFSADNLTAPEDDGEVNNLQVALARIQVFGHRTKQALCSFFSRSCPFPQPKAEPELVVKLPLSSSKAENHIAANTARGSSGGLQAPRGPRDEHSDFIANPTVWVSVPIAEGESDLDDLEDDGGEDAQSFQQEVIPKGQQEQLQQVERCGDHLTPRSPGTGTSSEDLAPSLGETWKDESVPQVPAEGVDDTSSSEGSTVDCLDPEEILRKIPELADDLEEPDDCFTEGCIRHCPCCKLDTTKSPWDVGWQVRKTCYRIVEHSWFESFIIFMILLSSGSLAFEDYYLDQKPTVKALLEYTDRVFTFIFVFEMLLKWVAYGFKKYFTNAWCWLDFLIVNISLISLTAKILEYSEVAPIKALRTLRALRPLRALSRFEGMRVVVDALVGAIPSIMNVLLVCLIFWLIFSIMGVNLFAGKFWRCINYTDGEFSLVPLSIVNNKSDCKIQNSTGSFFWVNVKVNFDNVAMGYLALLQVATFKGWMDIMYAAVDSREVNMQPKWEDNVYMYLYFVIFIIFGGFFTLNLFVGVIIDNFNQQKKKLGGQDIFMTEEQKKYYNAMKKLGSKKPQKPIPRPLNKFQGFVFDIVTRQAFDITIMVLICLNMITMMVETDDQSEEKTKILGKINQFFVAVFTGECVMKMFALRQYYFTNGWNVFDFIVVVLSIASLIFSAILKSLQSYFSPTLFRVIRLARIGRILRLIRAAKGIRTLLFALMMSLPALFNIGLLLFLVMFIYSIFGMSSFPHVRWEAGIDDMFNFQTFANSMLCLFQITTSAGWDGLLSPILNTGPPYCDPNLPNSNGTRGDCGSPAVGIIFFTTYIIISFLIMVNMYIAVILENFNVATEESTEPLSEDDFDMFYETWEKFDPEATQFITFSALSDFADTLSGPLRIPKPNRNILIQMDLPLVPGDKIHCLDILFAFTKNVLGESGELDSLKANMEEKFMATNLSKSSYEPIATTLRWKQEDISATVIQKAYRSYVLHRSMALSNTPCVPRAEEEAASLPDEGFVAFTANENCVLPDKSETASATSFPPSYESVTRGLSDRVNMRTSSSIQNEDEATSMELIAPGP

Regarding `Cc1nc(F)ccc1Oc1ncc(C(F)(F)F)c(C)c1C(=O)Nc1cccc([S@](C)(=N)=O)c1` [Compound 1559, (R)-2-((6-fluoro-2-methylpyridin-3-yl)oxy)-4-methyl-N-(3-(S-methylsulfonimidoyl)phenyl)-5-(trifluoromethyl)nicotinamide], the IC50 by setting is: under setting [1], at most 0.02 µM; under setting [2], at most 0.02 µM.
In the case of `COc1cc(F)ccc1Oc1ncc(C(F)(F)F)cc1C(=O)Nc1cc(S(C)(=O)=O)ccc1F` [Compound 1576], the IC50 is 0.04 to 0.2 µM under setting [1] and 0.04 to 0.2 µM under setting [2].
For `CN=S(C)(=O)c1cccc(NC(=O)c2cc(C(F)(F)F)cnc2Oc2ccc(F)cc2C)c1` (stereo not shown) [Compound 1717, N-[3-(N,S-dimethylsulfonimidoyl)phenyl]-2-(4-fluoro-2-methyl-phenoxy)-5-(trifluoromethyl)pyridine-3-carboxamide], the IC50 is, setting by setting: under setting [1], at most 0.02 µM; under setting [2], at most 0.02 µM.
For the compound `COc1cc(C#N)ccc1Oc1ncc(C2=CCOCC2)cc1C(=O)Nc1cccc(S(C)(=N)=O)c1` (stereo not shown) [Compound 1726, 2-(4-cyano-2-methoxy-phenoxy)-5-(3,6-dihydro-2H-pyran-4-yl)-N-[3-(methylsulfonimidoyl)phenyl]pyridine-3-carboxamide], the IC50 was in the range of 0.2 to 0.5 µM under setting [1] and 0.2 to 0.5 µM under setting [2].
As to `COc1c(Oc2nnc(C(F)(F)F)c(C)c2C(=O)Nc2cccc(S(C)(=N)=O)c2)ccc(F)c1F` (single isomer, unassigned) [Compound 1473, 3-(3,4-difluoro-2-methoxy-phenoxy)-5-methyl-N-[3-(methylsulfonimidoyl)phenyl]-6-(trifluoromethyl)pyridazine-4-carboxamide], the IC50 was at most 0.02 µM under setting [1] and at most 0.02 µM under setting [2].
Turning to `Cc1cc(F)ccc1Oc1nnc(C(F)(F)F)c(C)c1C(=O)Nc1ccc(C(N)=O)cc1` [Compound 1416], the IC50 under setting [1] was in the range of 0.04 to 0.2 µM and the IC50 under setting [2] lay in the range of 0.04 to 0.2 µM.
As to `COc1c(Oc2nnc3c(c2C(=O)Nc2cccc(C(N)=O)c2)CCC3)ccc(F)c1F` [Compound 1417], the IC50 lay within 0.2 to 0.5 µM under setting [1] and 0.2 to 0.5 µM under setting [2].
Regarding `CS(=N)(=O)c1cccc(NC(=O)c2cc(C(F)(F)F)cnc2Oc2ccc(C(F)(F)F)cc2)c1` (stereo not shown) [Compound 1564, N-[3-(methylsulfonimidoyl)phenyl]-5-(trifluoromethyl)-2-[4-(trifluoromethyl)phenoxy]pyridine-3-carboxamide], the IC50 by setting is: under setting [1], 0.04 to 0.2 µM; under setting [2], 0.02 to 0.04 µM.
On to `Cc1cc(C#N)ccc1Oc1nnc(C(F)(F)F)c(C)c1C(=O)Nc1cccc([S@](C)(=N)=O)c1` [Compound 1526, 3-(4-cyano-2-methylphenoxy)-N-{3-[(R)-imino(methyl)oxo-λ^6-sulfanyl]phenyl}-5-methyl-6-(trifluoromethyl)pyridazine-4-carboxamide], for which the IC50 under setting [1] is at most 0.02 µM and the IC50 under setting [2] was at most 0.02 µM.
On to `COc1ccc(Oc2nnc(C(F)(F)F)c(C)c2C(=O)Nc2cccc(S(C)(=O)=O)c2)c(C)n1` [Compound 1428], for which the IC50 is, setting by setting: under setting [1], 0.04 to 0.2 µM; under setting [2], 0.04 to 0.2 µM.
`COc1ncc(-c2nnc(Oc3ccc(C#N)cc3OC)c(C(=O)Nc3cccc(S(C)(=N)=O)c3)c2C)s1` (stereo not shown) [Compound 1461, 3-(4-cyano-2-methoxy-phenoxy)-6-(2-methoxythiazol-5-yl)-5-methyl-N-[3-(methylsulfonimidoyl)phenyl]pyridazine-4-carboxamide; formic acid]: the IC50 is 0.04 to 0.2 µM under setting [1] and 0.2 to 0.5 µM under setting [2].
As for `CO/N=C(\C)c1cccc(NC(=O)c2c(Oc3ccc(C#N)cc3OC)nnc(C(F)(F)F)c2C)c1` [Compound 1545, 3-(4-cyano-2-methoxy-phenoxy)-N-[3-[(E)-N-methoxy-C-methyl-carbonimidoyl]phenyl]-5-methyl-6-(trifluoromethyl)pyridazine-4-carboxamide], the IC50 under setting [1] lay in the range of 0.2 to 0.5 µM and the IC50 under setting [2] was 0.2 to 0.5 µM.
With `N#CC1CC(Oc2ncc(C(F)(F)F)cc2C(=O)Nc2ccc(C(N)=O)cc2)C1` (mixture of isomers) [Compound 1671], the IC50 reads like this: under setting [1], 0.2 to 0.5 µM; under setting [2], 0.2 to 0.5 µM.
For the compound `Cc1cc(F)ccc1Oc1ncc(C(F)(F)F)c(C)c1C(=O)Nc1cccc(S(C)(=N)=O)c1` (stereo not shown) [Compound 1557, 2-(4-fluoro-2-methylphenoxy)-4-methyl-N-(3-(S-methylsulfonimidoyl)phenyl)-5-(trifluoromethyl)nicotinamide], the IC50 runs as follows: under setting [1], at most 0.02 µM; under setting [2], at most 0.02 µM.
Consider `CSc1cccc(NC(=O)c2cc(C#N)cnc2Oc2ccc(F)cc2C)c1` [Compound 1579], for which the IC50 runs as follows: under setting [1], 0.2 to 0.5 µM; under setting [2], 0.2 to 0.5 µM.
With `COc1nc(Br)ccc1Oc1ncc(C(F)(F)F)cc1C(=O)Nc1cccc(S(C)(=N)=O)c1` (stereo not shown) [Compound 1685], the IC50 reads like this: under setting [1], at most 0.02 µM; under setting [2], at most 0.02 µM.
Take `Cc1cc(F)ccc1Oc1nnc(C(F)(F)F)c(C2CC2)c1C(=O)Nc1cccc([S@@](C)(=N)=O)c1` [Compound 1519, (S)-5-cyclopropyl-3-(4-fluoro-2-methylphenoxy)-N-(3-(S-methylsulfonimidoyl)phenyl)-6-(trifluoromethyl)pyridazine-4-carboxamide]: the IC50 under setting [1] was 0.02 to 0.04 µM and the IC50 under setting [2] is 0.02 to 0.04 µM.
For the compound `COc1c(Oc2ncc(Br)cc2C(=O)Nc2cccc(C(N)=O)c2)ccc(F)c1F` [Compound 1680], the IC50 reads like this: under setting [1], 0.02 to 0.04 µM; under setting [2], 0.02 to 0.04 µM.
For `Cc1cc(F)ccc1Oc1nnc(C(F)(F)F)c(NC2CC2)c1C(=O)Nc1cccc([S@@](C)(=N)=O)c1` [Compound 1522, (S)-5-(cyclopropylamino)-3-(4-fluoro-2-methylphenoxy)-N-(3-(S-methylsulfonimidoyl)phenyl)-6-(trifluoromethyl)pyridazine-4-carboxamide], the IC50 reads like this: under setting [1], 0.2 to 0.5 µM; under setting [2], 0.2 to 0.5 µM.
For the compound `CS(=N)(=O)c1cccc(NC(=O)c2cc(C(F)(F)F)cnc2OCC23CC(C#N)(C2)C3)c1` (stereo not shown) [Compound 1631], the IC50 is, setting by setting: under setting [1], 0.2 to 0.5 µM; under setting [2], 0.2 to 0.5 µM.
Consider `CS(=N)(=O)c1cccc(NC(=O)c2cc(C(F)(F)F)cnc2Oc2ccc(Br)cc2C2CC2)c1` (stereo not shown) [Compound 1648], for which the IC50 runs as follows: under setting [1], at most 0.02 µM; under setting [2], at most 0.02 µM.
As for `CS(=N)(=O)c1cccc(NC(=O)c2cc(C(F)(F)F)cnc2Oc2ccc(C(F)F)nc2)c1` (stereo not shown) [Compound 1674], the IC50 reads like this: under setting [1], 0.2 to 0.5 µM; under setting [2], 0.2 to 0.5 µM.
For the compound `COc1cc(C#N)ccc1Oc1nnc(-c2ccc(C#N)cc2)c(C)c1C(=O)Nc1ccc[n+]([O-])c1` [Compound 1527, 3-(4-cyano-2-methoxy-phenoxy)-6-(4-cyanophenyl)-5-methyl-N-(1-oxidopyridin-1-ium-3-yl)pyridazine-4-carboxamide], the IC50 fell in the range of 0.02 to 0.04 µM under setting [1] and 0.02 to 0.04 µM under setting [2].
`CS(=O)(=O)c1cccc(NC(=O)c2cc(C(F)(F)F)cnc2OC2CCC(F)(F)CC2)c1` [Compound 1660]: the IC50 runs as follows: under setting [1], 0.04 to 0.2 µM; under setting [2], 0.04 to 0.2 µM.
`CS(=O)(=O)c1cccc(NC(=O)c2cc(C(F)(F)F)cnc2Oc2cnc(Cl)c3ccccc23)c1` [Compound 1582]: the IC50 fell in the range of 0.2 to 0.5 µM under setting [1] and 0.2 to 0.5 µM under setting [2].
As for `Cc1cc(C#N)ncc1Oc1ncc(C(F)(F)F)cc1C(=O)Nc1cccc(S(C)(=O)=O)c1` [Compound 1694], the IC50 is, setting by setting: under setting [1], 0.2 to 0.5 µM; under setting [2], 0.2 to 0.5 µM.
In the case of `CC(C)Oc1ccc(Oc2ncc(C(F)(F)F)cc2C(=O)Nc2cccc(C(N)=O)c2)c(F)c1F` [Compound 1709], the IC50 under setting [1] was 0.02 to 0.04 µM and the IC50 under setting [2] is at most 0.02 µM.
As for `CS(=O)(=O)c1cccc(NC(=O)c2cc(C(F)(F)F)cnc2Oc2ccc3c(c2)CC(=O)N3)c1` [Compound 1598], the IC50 is, setting by setting: under setting [1], 0.2 to 0.5 µM; under setting [2], 0.2 to 0.5 µM.
With `Cc1cc(F)ccc1Oc1nnc(C(F)(F)F)c(C)c1C(=O)Nc1cccc(C(N)=O)c1` [Compound 1406], the IC50 lay in the range of 0.04 to 0.2 µM under setting [1] and 0.04 to 0.2 µM under setting [2].

Values taken from patent US20240336574A1 (LATIGO BIOTHERAPEUTICS, INC., priority 2021, published 2024).
